From patent US20240238218A1, “[…] A […] ACTIVE COMPOUND AND METHOD OF PREPARATION THEREOF” (GW Research Limited, priority 2021, published 2024)

Legend:
DBA/2 mice = experiment: DBA/2 mouse audiogenic seizure test; assay type: in vivo; conditions: for Clonic convulsion, Latency (s) Median / Tonic extension, Latency (s) Median / Wild running, Latency (s) Median: bell maximum 60 seconds; for Mice with a rectal temperature below 35.0° C / Tremor noted (number of mice): group of 10
Description: The DBA/2 audiogenic seizure test, which detects anticonvulsant activity, follows that described by Dürmüller et al. (NeuroReport, vol. 4, no. 6, pages 683-686, 1993).
60 male DBA/2 mice (3-4 weeks old) were included in the experiment (weight range 8-11 g at the beginning of the experiment). Animals were acclimatized to the test facility for 1 day after delivery and randomly housed in groups of 5 in macrolon cages on wood litter with free access to food and water.
Mice were individually transferred (at 3-5 minutes intervals) from the preparation room into an adjacent experimental room and body temperature was measured using a rectal thermometer. Immediately after, they were placed in a Plexiglas jar (Diameter=40 cm; Height=35 cm) mounted with an electric bell. Upon activating the bell, the occurrences and latencies to wild running fits, clonic and tonic seizures were measured. Deaths were also recorded. The bell was activated until a tonic seizure occured or for a maximum of 60 seconds.
The experiment included 6 groups (10 mice were studied per group). Experimenters were blinded to the treatment groups.
The test substance was evaluated at 4 doses, administered i.p. (10 mL/kg) 30 or 60 minutes before the test, and compared with a vehicle control group. Doses and pre-treatment times were based on previous pharmacokinetic data.
Test compound: Compound I dissolved in 5% ethanol, 10% Kolliphor HS15, 85% physiological saline.
Vehicle control: 5% ethanol, 10% Kolliphor HS15, 85% physiological saline.
Reference: Valproate (180 mg/kg), dissolved in 5% ethanol, 10% Kolliphor HS15, 85% physiological saline.
Quantitative data (latencies) with the test substance were analyzed by comparing treated groups with vehicle control using Kruskal-Wallis test followed by Dunn's multiple comparisons test. Quantitative data with the reference substance were analyzed using Mann-Whitney U test.
Quantal data (frequencies) were analyzed by comparing treated groups with vehicle control using Fisher's Exact Probability tests.

[1] = tested on: mouse model of generalised seizure (tonic hind limb extensor convulsions); experiment: Maximal electroshock seizure threshold (MEST) test in the mouse
Procedure: The efficacy of the novel resorcinol according to the compound of Formula I was tested in a mouse model of generalised seizure, the maximal electroshock seizure threshold (MEST) test.
In the MEST test the ability of a drug to alter the seizure threshold current required to induce hind limb tonic extensor convulsions is measured according to an “up and down” method of shock titration (Kimball et al., 1957). An increase in seizure threshold is indicative of anti-convulsant effect.
The ability of a test compound to alter the stimulus intensity, expressed as current (mA), required to induce the presence of tonic hind limb extensor convulsions, is assessed in the MEST.
All animals were weighed at the beginning of the study and randomly assigned to treatment groups based on a mean distribution of body weight across groups.
The first animal within a treatment group was given a shock at the expected or estimated CC50 current. For subsequent animals, the current was lowered or raised depending on the convulsions outcome from the preceding animal, in intervals of 5 mA.
Data generated from each treatment group were used to calculate the CC50±SEM values for the treatment group.
Vehicle: (5% ethanol, 5% Kolliphor® EL, 90% Saline) was prepared as follows: 2 mL of ethanol, 2 mL of Kolliphor® EL were warmed to 60° C., in 36 mL of saline (1:1:18).
The test compound, described herein as Compound I, is as shown as Formula I. Test compound was administered at 1, 5, 20, 50, 100 and 200 mg/kg (i.p.) in a 1:2:17 ethanol:solutol:0.9% saline formulation.
The data for each treatment group were recorded as the number of +'s and 0's at each current level employed and this information is then used to calculate the CC50 value (current required for 50% of the animals to show seizure behaviour)±standard error.
Test compound effects were also calculated as percentage change in CC50 from the vehicle control group.
Significant difference between drug-treated animals and controls were assessed according to Litchfield and Wilcoxon (1949).

[2] = 20 mg/kg i.p., 30 min before the test
[3] = 50 mg/kg i.p., 30 min before the test
[4] = 100 mg/kg i.p., 60 min before the test
[5] = 100 mg/kg i.p., 60 min before the test, mice with rectal temperature below 35.0° C removed
[6] = 200 mg/kg i.p., 60 min before the test
[7] = 200 mg/kg i.p., 60 min before the test, mice with rectal temperature below 35.0° C removed
[8] = 20 mg/kg i.p., 30 min post dose
[9] = 50 mg/kg i.p., 30 min post dose
[10] = 100 mg/kg i.p., 60 min post dose
[11] = 200 mg/kg i.p., 60 min post dose

C=C(C)[C@@H]1CC(O)C(C)=C[C@H]1c1c(O)cc(Br)cc1O (single isomer, unassigned) [Compound I]
Clonic convulsion, Latency, Compared with Vehicle (i.p.) % (DBA/2 mice; [2]): +44% | Clonic convulsion, Presence, % (DBA/2 mice; [2]): 70% | Clonic convulsion, Presence, Compared with Vehicle (i.p.) % (DBA/2 mice; [2]): −30% | Clonic convulsion, Presence, Total (DBA/2 mice; [2]): 7/10 | Death, Presence, % (DBA/2 mice; [2]): 20% | Death, Presence, Compared with Vehicle (i.p.) % (DBA/2 mice; [2]): −50% | Death, Presence, Total (DBA/2 mice; [2]): 2/10 | Tonic extension, Latency, Compared with Vehicle (i.p.) % (DBA/2 mice; [2]): +461% | Tonic extension, Presence, % (DBA/2 mice; [2]): 40% | Tonic extension, Presence, Compared with Vehicle (i.p.) % (DBA/2 mice; [2]): −60% | Tonic extension, Presence, Total (DBA/2 mice; [2]): 4/10 | Wild running, Latency, Compared with Vehicle (i.p.) % (DBA/2 mice; [2]): +55% | Wild running, Presence, % (DBA/2 mice; [2]): 80% | Wild running, Presence, Compared with Vehicle (i.p.) % (DBA/2 mice; [2]): −20% | Wild running, Presence, Total (DBA/2 mice; [2]): 8/10 | Clonic convulsion, Latency (s) Median (DBA/2 mice; [2]): 9.5 s | Tonic extension, Latency (s) Median (DBA/2 mice; [2]): 60.0 s | Wild running, Latency (s) Median (DBA/2 mice; [2]): 5.1 s | Clonic convulsion, Latency, Compared with Vehicle (i.p.) % (DBA/2 mice; [3]): +809% | Clonic convulsion, Presence, % (DBA/2 mice; [3]): 40% | Clonic convulsion, Presence, Compared with Vehicle (i.p.) % (DBA/2 mice; [3]): −60% | Clonic convulsion, Presence, Total (DBA/2 mice; [3]): 4/10 | Death, Presence, % (DBA/2 mice; [3]): 0% | Death, Presence, Compared with Vehicle (i.p.) % (DBA/2 mice; [3]): −100% | Death, Presence, Total (DBA/2 mice; [3]): 0/10 | Tonic extension, Latency, Compared with Vehicle (i.p.) % (DBA/2 mice; [3]): +461% | Tonic extension, Presence, % (DBA/2 mice; [3]): 0% | Tonic extension, Presence, Compared with Vehicle (i.p.) % (DBA/2 mice; [3]): −100% | Tonic extension, Presence, Total (DBA/2 mice; [3]): 0/10 | Wild running, Latency, Compared with Vehicle (i.p.) % (DBA/2 mice; [3]): +924% | Wild running, Presence, % (DBA/2 mice; [3]): 50% | Wild running, Presence, Compared with Vehicle (i.p.) % (DBA/2 mice; [3]): −50% | Wild running, Presence, Total (DBA/2 mice; [3]): 5/10 | Clonic convulsion, Latency (s) Median (DBA/2 mice; [3]): 60.0 s | Tonic extension, Latency (s) Median (DBA/2 mice; [3]): 60.0 s | Wild running, Latency (s) Median (DBA/2 mice; [3]): 33.8 s | Clonic convulsion, Latency, Compared with Vehicle (i.p.) % (DBA/2 mice; [4]): +809% | Clonic convulsion, Presence, Compared with Vehicle (i.p.) % (DBA/2 mice; [4]): −100% | Death, Presence, Compared with Vehicle (i.p.) % (DBA/2 mice; [4]): −100% | Tonic extension, Latency, Compared with Vehicle (i.p.) % (DBA/2 mice; [4]): +461% | Tonic extension, Presence, Compared with Vehicle (i.p.) % (DBA/2 mice; [4]): −100% | Wild running, Latency, Compared with Vehicle (i.p.) % (DBA/2 mice; [4]): +1718% | Wild running, Presence, Compared with Vehicle (i.p.) % (DBA/2 mice; [4]): −100% | Clonic convulsion, Latency (s) Median (DBA/2 mice; [4]): 60.0 s | Tonic extension, Latency (s) Median (DBA/2 mice; [4]): 60.0 s | Wild running, Latency (s) Median (DBA/2 mice; [4]): 60.0 s | Clonic convulsion, Presence, % (DBA/2 mice; [5]): 0% | Clonic convulsion, Presence, Total (DBA/2 mice; [5]): 0/6 | Death, Presence, % (DBA/2 mice; [5]): 0% | Death, Presence, Total (DBA/2 mice; [5]): 0/6 | Tonic extension, Presence, % (DBA/2 mice; [5]): 0% | Tonic extension, Presence, Total (DBA/2 mice; [5]): 0/6 | Wild running, Presence, % (DBA/2 mice; [5]): 0% | Wild running, Presence, Total (DBA/2 mice; [5]): 0/6 | Mice with a rectal temperature below 35.0° C (DBA/2 mice; 100 mg/kg i.p.): Four mice | Tremor noted (number of mice) (DBA/2 mice; 100 mg/kg i.p.): 5 mice | Clonic convulsion, Latency, Compared with Vehicle (i.p.) % (DBA/2 mice; [6]): +809% | Clonic convulsion, Presence, Compared with Vehicle (i.p.) % (DBA/2 mice; [6]): −80% | Death, Presence, Compared with Vehicle (i.p.) % (DBA/2 mice; [6]): −100% | Tonic extension, Latency, Compared with Vehicle (i.p.) % (DBA/2 mice; [6]): +461% | Tonic extension, Presence, Compared with Vehicle (i.p.) % (DBA/2 mice; [6]): −100% | Wild running, Latency, Compared with Vehicle (i.p.) % (DBA/2 mice; [6]): +1718% | Wild running, Presence, Compared with Vehicle (i.p.) % (DBA/2 mice; [6]): −80% | Clonic convulsion, Latency (s) Median (DBA/2 mice; [6]): 60.0 s | Tonic extension, Latency (s) Median (DBA/2 mice; [6]): 60.0 s | Wild running, Latency (s) Median (DBA/2 mice; [6]): 60.0 s | Clonic convulsion, Presence, % (DBA/2 mice; [7]): 33% | Clonic convulsion, Presence, Total (DBA/2 mice; [7]): 2/6 | Death, Presence, % (DBA/2 mice; [7]): 0% | Death, Presence, Total (DBA/2 mice; [7]): 0/6 | Tonic extension, Presence, % (DBA/2 mice; [7]): 0% | Tonic extension, Presence, Total (DBA/2 mice; [7]): 0/6 | Wild running, Presence, % (DBA/2 mice; [7]): 33% | Wild running, Presence, Total (DBA/2 mice; [7]): 2/6 | Mice with a rectal temperature below 35.0° C (DBA/2 mice; 200 mg/kg i.p.): Four mice | Tremor noted (number of mice) (DBA/2 mice; 200 mg/kg i.p.): 3 mice | Effect on the number of deaths (DBA/2 mice; any doses (20, 50, 100, 200 mg/kg i.p.)): did not affect the number of deaths at any doses | % change from vehicle (CC50) ([1]; 1 mg/kg i.p., 15 min post dose): 32% | CC50 +/− SEM ([1]; 1 mg/kg i.p., 15 min post dose): 31.3 ± 1.5 mA | % change from vehicle (CC50) ([1]; 5 mg/kg i.p., 15 min post dose): 45% | CC50 +/− SEM ([1]; 5 mg/kg i.p., 15 min post dose): 34.2 ± 1.5 mA | % change from vehicle (CC50) [1, 8]: 202% | CC50 +/− SEM [1, 8]: 71.5 ± 1.0 mA | % change from vehicle (CC50) [1, 9]: 650% | CC50 +/− SEM [1, 9]: 177.5 ± 0.7 mA | % change from vehicle (CC50) [1, 10]: 1157% | CC50 +/− SEM [1, 10]: 297.5 ± 0.7 mA | % change from vehicle (CC50) [1, 11]: >1168% | CC50 +/− SEM [1, 11]: >300.0 mA
